Experimental data: the METLIN SMRT retention time set (Domingo-Almenara et al. 2019)

Assay: gradient 5% acetonitrile 3 min, to 50% in 2 min, to 85% in 15 min, held 3 min, 100 µL/min
Details: column: Zorbax Extend-C18 2.1 x 50 mm; eluents: water / acetonitrile, 0.1% formic acid
In short: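 A Zorbax Extend-C18 column (2.1 × 50 mm, 1.8 μm) run at 100 μL/min with water and acetonitrile, both containing 0.1% formic acid, separated mixtures of ~100 pure standards. The HPLC was coupled to a quadrupole time-of-flight mass spectrometer operated in positive and negative ionization mode, with dead and dwell volumes of 40 μL and 900 μL. Each retention time was taken from a computationally picked adduct peak that was then manually inspected.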

For CCCn1cc(CCNS(=O)(=O)c2cccc(C)c2)c2cccnc21, the RP-LC retention time was 866 s.
For CCOC(=O)COc1cc(O)cc2oc(-c3ccccc3)cc(=O)c12, the RP-LC retention time was 695 s.
Compound Cc1ccc(C)c2c(=O)c3c([nH]c12)CCN(CC(=O)Nc1ccc(F)cc1)C3 has an RP-LC retention time of 634 s.
For CC(C)N1C(=O)C(C)N(C(=O)NCCN(C)C)c2cccnc21 (stereo unspecified), the RP-LC retention time was 565 s.
CC(=O)N1c2ccc(S(=O)(=O)N3CCCCCC3)cc2CC1C(=O)NCc1ccccc1Cl (stereo unspecified) gave an RP-LC retention time of 950 s.
Cc1ccc(-c2csc(NC(=O)CSc3nc4c(cc3C#N)CN(C(C)C)CC4)n2)cc1 gave an RP-LC retention time of 741 s.
Work on Cc1nnc2cc(N3CCN(S(=O)(=O)c4ccccc4F)CC3)cnn12 yielded an RP-LC retention time of 674 s.
Work on CC(C)NC(=O)c1cccc2c1CCN2C(=O)C1CC1 yielded an RP-LC retention time of 700 s.
Work on CCOC(=O)[C@H](C)C[C@@H](Cc1ccc(-c2ccccc2)cc1)NC(=O)CCC(=O)O yielded an RP-LC retention time of 1010 s.
CCCNC(=O)C1=Cc2cc(Cl)cc(OC)c2OC=C1 gave an RP-LC retention time of 977 s.
O=C(NCCN1CCOCC1)C1CCN(Cc2cc3ccccc3n2Cc2ccccc2Cl)CC1 gave an RP-LC retention time of 621 s.
Work on CC(C)(C)c1noc(-c2cccnc2-n2cnc(C(=O)NC3CCCC3)c2)n1 yielded an RP-LC retention time of 968 s.
For CC(O)(CNC(=O)c1cccc(C(F)(F)F)c1)c1ccccc1 (stereo unspecified), the RP-LC retention time was 808 s.
Work on Cc1nc(OCC(=O)NC2CCCCC2)c2c(-c3ccccc3)noc2n1 yielded an RP-LC retention time of 1010 s.
Work on O=c1ccc(S(=O)(=O)N2CCOCC2)cn1Cc1cccc(F)c1 yielded an RP-LC retention time of 755 s.
CCSc1nnc(NC(=O)Cn2cnc(C(C)C)cc2=O)s1 showed an RP-LC retention time of 664 s.
In the case of CCCn1cnc2ccc(-c3noc(-c4ccccc4F)n3)cc21, the RP-LC retention time is reported as 812 s.
Work on Cc1ccc(-c2csc(Cc3nc(-c4ccc5c(c4)OCO5)no3)n2)cc1C yielded an RP-LC retention time of 1280 s.
With O=C(O)c1cccc(Nc2c(-c3ccc(N4CCOCC4)cc3)nc3cnccn23)c1 the RP-LC retention time was 648 s.
Work on Cc1cccc(S(=O)(=O)N2CCC(CN3CCCCCC3)CC2)c1 yielded an RP-LC retention time of 672 s.
COc1ccc(-n2nc(C(F)(F)F)cc2-c2ccc(Cl)cc2)cc1 showed an RP-LC retention time of 1250 s.
Work on CNC(=O)C1CCCN(c2nc3ncn(CC(=O)Nc4cc(F)ccc4C)c(=O)c3s2)C1 (stereo unspecified) yielded an RP-LC retention time of 644 s.
With NS(=O)(=O)c1ccc(CCNS(=O)(=O)c2cccc(-c3nc(-c4ccccc4)no3)c2)cc1 the RP-LC retention time was 952 s.
CC1CCN(C(=O)c2nnc(-c3ccc(S(=O)(=O)N4CCCC4)cc3)o2)CC1 showed an RP-LC retention time of 952 s.
Work on CC(=O)Nc1ccc(SCC(=O)Nc2ccc(OC(F)(F)F)cc2)nn1 yielded an RP-LC retention time of 745 s.
Work on O=C1NC2(CCN(C(=O)NCc3ccccc3)CC2)Oc2ccccc21 yielded an RP-LC retention time of 963 s.
Work on CC(C)NC(=O)c1cc2c(s1)N(CC1CC1)CCCC2 yielded an RP-LC retention time of 1080 s.
With CCc1nc(-c2csc(S(=O)(=O)N3CCC(C(=O)NC(C)C)CC3)c2)no1 the RP-LC retention time was 812 s.
CO[C@H]1C(=O)N(C2CCN(S(=O)(=O)c3cccs3)CC2)[C@H]1c1ccncc1 gave an RP-LC retention time of 619 s.
Work on COc1ccc(C(=O)NC2CCN(c3nnc4ccc(C(F)(F)F)cn34)CC2)cc1 yielded an RP-LC retention time of 751 s.
Compound Cc1ccccc1Cn1cc(CCC(=O)NCCN2CCOCC2)c2ccccc21 has an RP-LC retention time of 639 s.
Compound O=C(Nc1ccc2c(c1)CCCN2C(=O)C1CC1)c1ccccc1[N+](=O)[O-] has an RP-LC retention time of 716 s.
CC(C)n1cc(C2=CCN(S(=O)(=O)Cc3ccc(Cl)cc3)CC2)c2cccnc21 showed an RP-LC retention time of 1130 s.
With O=C(NCC(O)c1cccc2ccccc12)c1c(F)cccc1Cl (stereo unspecified) the RP-LC retention time was 796 s.
O=C(NCc1cccnc1Oc1ccccc1)c1ccco1 gave an RP-LC retention time of 685 s.
Compound Cc1sc(-c2cc(C(F)(F)F)on2)cc1S(=O)(=O)Nc1ccccc1Cl has an RP-LC retention time of 1180 s.
In the case of CC(C)c1c(C(=O)O)nnn1Cc1ccccc1, the RP-LC retention time is reported as 720 s.
In the case of COc1ccc(-c2cc(C(=O)Nc3cc(F)cc(F)c3)sn2)cc1, the RP-LC retention time is reported as 1200 s.
For CCCN1C(=O)COc2cc(-c3noc(C(=O)NC4CCCC4)n3)ccc21, the RP-LC retention time was 977 s.
Compound CCc1nc2cc(N3CCCC(C(=O)N4CCC5(CC4)OCCO5)C3)cnc2nc1CC (stereo unspecified) has an RP-LC retention time of 769 s.
With COc1ccc2c(c1)CCN(C(=O)c1csc(-n3cccc3)n1)C2 the RP-LC retention time was 895 s.
In the case of O=C(CSC1CCc2ccccc2NC1=O)Nc1cccc(Br)c1 (stereo unspecified), the RP-LC retention time is reported as 872 s.
In the case of O=C(NCc1ccco1)N1CCN(c2nc3ccccc3n(Cc3ccccc3)c2=O)CC1, the RP-LC retention time is reported as 967 s.
CC(C)c1ccc(CNC(=O)c2ccc3ncnc(N4CCOCC4)c3c2)cc1 showed an RP-LC retention time of 708 s.
With O=C(NCc1ccc(F)cc1)N1CCCC1c1nc(-c2ccc(F)cc2F)no1 (stereo unspecified) the RP-LC retention time was 897 s.
With COc1ccc(Br)c(C(=O)Nc2ccc3c(c2)C(=O)NCC3)c1 the RP-LC retention time was 672 s.
Compound CN1C(=O)C2(CCN(C(=O)NC3CCCCC3)CC2)c2ccccc21 has an RP-LC retention time of 807 s.
With COc1ccccc1N1CCN(c2ncccc2-c2nc(-c3ccccc3)no2)CC1 the RP-LC retention time was 1140 s.
O=C(Nc1cccc(F)c1)N1CCN(Cc2nc3ccc(Cl)cc3o2)CC1 showed an RP-LC retention time of 784 s.
For Cc1ccc(CNC(=O)NCCCn2c(-c3ccncc3)nc3cccnc32)cc1, the RP-LC retention time was 651 s.
For CCn1cnc(S(=O)(=O)N2CCC(C(=O)N3CCN(c4cccc(Cl)c4)CC3)CC2)c1, the RP-LC retention time was 825 s.
Compound O=c1c2cc(-c3cccs3)nn2cnn1Cc1nc(-c2ccccc2)no1 has an RP-LC retention time of 1050 s.
CCOc1ccccc1C1NC(=O)N(CC(=O)NC2CCCCC2)C2=C1C(=O)OC2 (stereo unspecified) gave an RP-LC retention time of 722 s.
In the case of O=C(NCc1cnccn1)c1ccnc(N2CCNC(c3ccccc3)C2)c1 (stereo unspecified), the RP-LC retention time is reported as 581 s.
O=C(Nc1cnc(-c2cccnc2)nc1)C1CCCCC1 showed an RP-LC retention time of 681 s.
Work on COC(=O)c1cnc2nc(C)ccc2c1Nc1ccc(Cl)cc1C yielded an RP-LC retention time of 721 s.
CCOC(=O)C1CCN(C(=O)C2CCCN(c3nc4ccccc4[nH]3)C2)CC1 (stereo unspecified) showed an RP-LC retention time of 646 s.
Compound Cn1c(C2CCN(C(=O)c3cccc(Cl)c3)C2)nc2ccncc21 (stereo unspecified) has an RP-LC retention time of 554 s.
COc1ccc(NC(=O)c2c(O)c3cccnc3n(-c3cccc(F)c3)c2=O)cc1 gave an RP-LC retention time of 1190 s.
With CCn1c(=O)c(=O)n(CC(=O)NC2CCCCCCC2)c2cccnc21 the RP-LC retention time was 806 s.
Cc1csc(-c2ccc(N3CCN(C(=O)c4ccc5ccccc5n4)CC3)nc2)n1 showed an RP-LC retention time of 833 s.
Cc1ccc(Sc2ccc(N3CCC(C(=O)N4CCN(c5ncccn5)CC4)CC3)nn2)cc1 gave an RP-LC retention time of 741 s.
For C=CCn1c(=O)c2ccccc2n(Cc2nc(-c3cccc(C(F)(F)F)c3)no2)c1=O, the RP-LC retention time was 1110 s.
Work on CCc1cccc(C)c1NC(=O)C1CCCN(S(=O)(=O)c2cc(-c3noc(C)n3)cs2)C1 (stereo unspecified) yielded an RP-LC retention time of 995 s.
For O=C(Nc1cccc(OCc2nnc(-c3ccccc3)o2)c1)c1ccnc(Cl)c1, the RP-LC retention time was 926 s.
O=C(C1CC1)N1CCc2sc(S(=O)(=O)Nc3ccccc3Br)cc2C1 gave an RP-LC retention time of 858 s.
